The values below come from US20140378460A1, “COMPOSITIONS AND METHODS FOR TREATING NEURODEGENERATIVE DISEASE” (COGNITION THERAPEUTICS, INC., priority 2011, published 2014).

As a reminder, the EC50 is the concentration that produces a half-maximal response. As usually defined, the IC50 is the concentration needed to halve the response being measured.

Data set [1] concerns the target T1, Sigma-1 receptors (UniProt Q60492).
T1 construct: other: known prior art compounds, published studies
The settings on record: cited from earlier work.

Data set [2] relates to Sigma-1 receptors. Conditions: cited from earlier work; for Sigma 1 (Type of Activity): known prior art compounds; for Ki: Table 11E, clinical compounds, first figure of S1/S2, read-out: Sigma Affinity (S1).
Data set [3] has as its target T2, sigma-2 receptor (Rattus norvegicus, UniProt Q5U3Y7).
T2 sequence (Q5U3Y7 1-176): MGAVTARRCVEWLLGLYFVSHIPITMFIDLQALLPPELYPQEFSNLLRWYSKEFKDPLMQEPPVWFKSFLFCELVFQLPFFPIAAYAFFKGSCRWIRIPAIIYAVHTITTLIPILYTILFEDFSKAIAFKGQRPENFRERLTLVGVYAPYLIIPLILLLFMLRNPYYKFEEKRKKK
Set-up: other: known prior art compounds, published studies. The settings on record: cited from earlier work.

The conditions of data set [4]: list wraps over the rows below; first line given; cited from earlier work.
Data set [5] relates to Abeta oligomer-induced membrane trafficking deficits in primary hippocampal neurons. As to the kind of experiment: Membrane trafficking/exocytosis (MTT) assay. The class given is cell-based, rat. Conditions: for EC50: known prior art compounds, read-out: Inhibition Abeta oligomer-induced Membrane Trafficking EC50. As for the experimental part:
The methods used to generate the results were as follows in the Membrane Trafficking/Exocytosis (MTT) assay.
Primary hippocampal neurons from E18 Sprague-Dawley rat embryos were plated at optimized concentrations in 384 well plates in NB media (Invitrogen). Neurons were maintained in cultures for 3 weeks, with twice weekly feeding of NB media with N2 supplement (Invitrogen).
A test compound was added to cells at concentrations ranging from 100 uM to 0.001 nM followed by addition of vehicle or Abeta oligomer preparations (3 μM total Abeta protein concentration), and incubated for 1 to 24 hr at 37° C. in 5% CO2. MTT reagent (3-(4,5-dimethylthizaol-2-yl)-2,5diphenyl tetrazolium bromide) (Roche Molecular Biochemicals) was reconstituted in phosphate buffered saline to 5 mg/mL. 10 μl, of MTT labeling reagent is added to each well and incubated at 37° C. for 1 h, then imaged. Exocytosis was assessed by automated microscopy and image processing to quantify the amount of endocytosed and exocytosed formazan.
Each assay plate was formatted so that compounds are tested with and without Abeta oligomer on each plate.

For data set [6], the system named is Sigma-2 receptors. The settings on record: cited from earlier work; for Ki: Table 11E, clinical compounds, second figure of S1/S2, read-out: Sigma Affinity (S2).
The test system of data set [7] is K+ ch. Conditions: b58; cited from earlier work.
Data set [8] relates to caspase-3 in SKOV-3 human ovarian cancer cells. As to the kind of experiment: Caspase-3 activity in tumor cells. In kind it is cell-based.
For data set [9], the system named is caspase-3 in neuronal cultures. As to the kind of experiment: Caspase-3 activity in neurons. In kind it is cell-based.
The subject of data set [10] is neuronal cultures.
Data set [11] concerns SKOV-3 human ovarian cancer cell line. Briefly: MTS tumor cell viability assay. The class given is cell-based. Conditions: for Action: by EC50 relative to siramesine; for IC50: Homo sapiens, SK-OV-3, tumor cell viability, 48 hrs. On the procedure: The cytotoxicity of compounds shown below was determined using the CellTiter96 Aqueous One Solution Assay (Promega, Madison, Wis.). […] The plate was read at 490 nm in a Victor3 plate reader (PerkinElmer Life and Analytical Sciences, Shelton, Conn.). The EC^50 value, defined as the concentration of the sigma ligand required to inhibit cell viability by 50% relative to untreated cells, was determined from the dose response curve for each cell line.

Data set [12] can be described thus: Drug-like properties of known compounds (BBB, oxidative metabolism). The settings on record: (Oxidative substr.; Not BBB, Ox Sub.); first line given.
Data set [13] relates to muscarinic M1-M4. Conditions: cited from earlier work.
Data set [14] concerns Na + ch2. The settings on record: cited from earlier work.
Data set [15] addresses NMDAR2B (Homo sapiens, UniProt Q13224). Conditions: cited from earlier work.
Data set [16] relates to Abeta oligomer-induced synapse loss in primary hippocampal neurons. As to the kind of experiment: Synapse loss assay. The class given is cell-based, rat. As for the experimental part:
In this assay, Abeta oligomers were brought in contact with mature primary neurons in culture and their binding was determined by immunohistochemistry (anti-Abeta antibody) and quantified by image processing. The amount of Abeta in neuronal dendrites is assessed by counting the number of labeled puncta on the neuritis. […] This labeling is associated with synapses, co-localizing with the post-synaptic scaffold protein PSD-95 (Lacor et al., '04). […] The number of synapses can also be quantified in this assay by immunofluorochemistry. Similar procedures for binding assays can be found in the literature. […] Review.
Primary hippocampal neuronal culture was established as in the membrane trafficking assay above. […] Pretreatment with compounds to be tested lasted for 1 hr and addition of Abeta oligomers or no oligomer (vehicle alone) in a final concentration of 70 ul was followed by incubation for an additional 23 hrs.
The plates were then washed 3× with PBS for 5 min each. The plates were blocked at RT for 1 hr in 5% goat serum and 0.5% Triton X-100 in PBS. […] Primary antibodies were incubated overnight at 4° C. The plates were then washed 3× with PBS for 5 min each. […] Secondary antibodies were incubated at RT for 1 hr. The plates were washed once with PBS. DAPI (4′,6-diamidino-2-phenylindole, Invitrogen) was then applied at 0.03 ug/ul and incubated at RT for 5 min, then washed with PBS.

[17] abbreviates: Table 11C, read-out: S1 binding Ki.
The mark [18] stands for this setting: Table 11D, read-out: Sigma-1 Receptor Ki.
Setting [19] is: known prior art compounds, published studies, read-out: Sigma 1 Binding Ki.
Where [20] appears, read: Table 11C, read-out: S2 binding Ki.
The mark [21] stands for this setting: Table 11D, read-out: Sigma-2 Receptor Ki.
The mark [22] stands for this setting: known prior art compounds, published studies, read-out: Sigma 2 Binding Ki.
[23] abbreviates: Table 11D, read-out: Membrane trafficking IC50.
Where [24] appears, read: read-out: S2 binding Ki, Table 11C.
The mark [25] stands for this setting: Rattus norvegicus, Hippocampal neuron, Table 11C.

Like-named read-outs stand apart in the source and are kept apart here.

NMDAR2B, sequence (Q13224 27-1484, species assumed, other chains not shown): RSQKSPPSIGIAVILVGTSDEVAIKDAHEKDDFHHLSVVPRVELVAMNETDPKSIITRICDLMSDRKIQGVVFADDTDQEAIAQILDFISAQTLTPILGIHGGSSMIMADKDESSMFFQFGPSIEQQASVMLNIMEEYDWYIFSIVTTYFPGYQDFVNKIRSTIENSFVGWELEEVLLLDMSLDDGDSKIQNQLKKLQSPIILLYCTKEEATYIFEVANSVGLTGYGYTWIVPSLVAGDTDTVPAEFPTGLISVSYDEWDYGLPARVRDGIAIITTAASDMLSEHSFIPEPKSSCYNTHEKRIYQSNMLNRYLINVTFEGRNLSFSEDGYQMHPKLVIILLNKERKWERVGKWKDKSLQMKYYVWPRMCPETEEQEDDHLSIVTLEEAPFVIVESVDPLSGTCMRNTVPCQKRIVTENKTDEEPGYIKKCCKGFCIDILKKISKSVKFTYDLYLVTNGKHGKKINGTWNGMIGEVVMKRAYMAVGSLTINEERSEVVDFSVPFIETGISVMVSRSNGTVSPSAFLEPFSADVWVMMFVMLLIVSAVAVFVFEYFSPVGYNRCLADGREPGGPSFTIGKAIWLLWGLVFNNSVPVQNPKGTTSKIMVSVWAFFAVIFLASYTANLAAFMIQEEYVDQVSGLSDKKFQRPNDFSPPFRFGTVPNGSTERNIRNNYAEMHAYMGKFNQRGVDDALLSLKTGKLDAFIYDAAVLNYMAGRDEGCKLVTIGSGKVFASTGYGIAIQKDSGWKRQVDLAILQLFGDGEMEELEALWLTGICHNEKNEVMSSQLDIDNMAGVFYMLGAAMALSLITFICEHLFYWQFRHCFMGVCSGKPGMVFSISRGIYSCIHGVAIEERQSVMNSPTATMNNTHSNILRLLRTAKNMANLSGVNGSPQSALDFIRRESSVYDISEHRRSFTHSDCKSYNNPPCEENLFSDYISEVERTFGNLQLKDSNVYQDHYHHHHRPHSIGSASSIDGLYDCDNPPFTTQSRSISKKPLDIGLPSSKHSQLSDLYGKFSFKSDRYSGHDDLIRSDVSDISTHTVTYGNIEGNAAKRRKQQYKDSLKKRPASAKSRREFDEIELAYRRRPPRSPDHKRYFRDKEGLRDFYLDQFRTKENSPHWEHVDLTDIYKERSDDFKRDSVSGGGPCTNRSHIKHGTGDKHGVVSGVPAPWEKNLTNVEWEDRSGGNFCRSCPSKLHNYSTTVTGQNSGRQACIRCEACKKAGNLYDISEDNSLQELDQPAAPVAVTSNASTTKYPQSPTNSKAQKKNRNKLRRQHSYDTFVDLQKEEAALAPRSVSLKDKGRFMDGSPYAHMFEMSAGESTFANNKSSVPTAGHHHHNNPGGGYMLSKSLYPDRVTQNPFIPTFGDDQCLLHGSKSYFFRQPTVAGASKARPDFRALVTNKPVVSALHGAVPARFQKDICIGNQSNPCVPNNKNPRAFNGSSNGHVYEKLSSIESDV

As for `CN(C)CCN(C)CCc1ccc(Cl)c(Cl)c1` [BD1047], the Ki was 0.9 nM in data set [1] (setting [17]); 0.9 nM in data set [1] (setting [18]); 0.9 nM in data set [1] (setting [19]); 47 nM in data set [3] (setting [20]); 47 nM in [3] (setting [21]); 47 nM in [3] (setting [22]). Besides, the “Sigma 1 (Type of Activity)” value in data set [2] is on record as “(antagonist)”. In data set [4], the Selectivity other activities entry is on record as “D2, β3-AR”. For the same molecule, the “Max Inhibition of Abeta (%)” value in [5] worked out at 100%. Moreover, the “Functional Neuronal Phenotype” value in [5] (Table 11C) and in data set [5] (Table 11D) was “Antagonist” in each case. In addition, the EC50 in [5] (Table 11C) was 2400 nM. Moreover, in [5] (setting [23]), the IC50 came out at 2.4 µM.

Turning to `C[C@@H]([C@@H](O)c1ccc(O)cc1)N1CCC(Cc2ccccc2)CC1` [Threo-ifenprodil (TIF), Threo-ifenprodil], the “Sigma 2 type of activity” value in data set [6] (in brackets after the Ki) is on record as “agonist”. Further, the “Affinity K+ ch” value in [7] was 88 nM. Moreover, in [5], the “Effect on Abeta oligomer trafficking deficits over the concentrations tested” value (from here on “Effect … over the concentrations tested”) is reported as “does not cause apoptosis, affect trafficking or interfere with Abeta oligomer-induced trafficking deficits when dosed alone” and the “Max Inhibition of Abeta (%)” value is listed as 39%. In [5] (Table 11C), the “Functional Neuronal Phenotype” value was “Inactive” and the concentration for a half-maximal effect (EC50) is above 20000 nM.

Take `COc1cc2c(cc1OC)CN(CCCCNC(=O)c1cc(C)ccc1OC)CC2` [RHM-1, N-[4-(3,4-dihydro-6,7-dimethoxyisoquinolin-2(1H)-yl)butyl]-2-methoxy-5-methylbenzamide]: in data set [8], the “Block of SV-119-induced caspase-3 activation in tumor cells” value was “do not block caspase-3 activation” and the “Caspase-3 activity induced in tumor cells” value is reported as “did not induce caspase-3 activity”. Also, the “Caspase-3 activity induced in neurons” value in [9] was “did not induce caspase-3 activity”. The “Effect … over the concentrations tested” value in data set [5] is “blocks oligomer-induced trafficking deficits at all concentrations tested”. In addition, the “Nuclear morphology / nuclear intensity in neurons” value in data set [10] is given as “did not decrease nuclear intensity”. In addition, in data set [11], the Action result is recorded as “Antagonist”.

As to `COc1ccc(C)cc1NC(=O)OC1CC2CCCC(C1)N2CCCCCCN` (stereo not drawn) [SV-119], the Ki in data set [1] (setting [17]) is 1400 nM. Also, the Ki in data set [3] (setting [24]) is 8 nM. In addition, the “Caspase-3 activity induced in tumor cells” value in data set [8] is reported as “caspase-3 activation”. In addition, in [9], the “Caspase-3 activity induced in neurons” value is listed as “caspase-3 activation”. The “Effect … over the concentrations tested” value in [5] is “blocks Abeta oligomer trafficking deficits at low concentrations, but causes cellular toxicity at high concentrations”. In [5] (setting [25]), the concentration for a half-maximal effect (EC50) was determined as 2600 nM. The “Functional Neuronal Phenotype” value in data set [5] (Table 11C) is “Agonist”. Moreover, in data set [10], the “Nuclear morphology / nuclear intensity in neurons” value is on record as “caused significant abnormal nuclear morphology”. In data set [11], inhibition was half-maximal at 21700 ± 2900 nM (IC50) and the Action result was “Full agonist”.

With `CC(C)=CCN1CCC2(C)c3cc(O)ccc3CC1C2C` (single isomer, unassigned; (+)) [(+) Pentazocine, (+)-pentazocine], the Ki in data set [3] (read-out: Sigma-2 Receptor Ki, Table 11D) is above 5000 nM. In data set [12], the Drug-like properties entry is “Yes”. The IC50 in data set [5] (Rattus norvegicus, Hippocampal neuron, read-out: Membrane trafficking IC50 (uM)) was determined as 7.6 µM. In addition, the “Functional Neuronal Phenotype” value in [5] (Table 11D) is given as “Antagonist”.

On to `COc1ccc(C)cc1NC(=O)OC1CC2CCCC(C1)N2Cc1ccc(N(C)C)cc1` (stereo not drawn) [WC-26], for which the Ki in [1] (setting [17]) was 1400 nM. Also, the Ki in data set [3] (setting [24]) was 3 nM. For the same molecule, the EC50 in [5] (setting [25]) worked out at 1600 nM. The “Functional Neuronal Phenotype” value in data set [5] (Table 11C) is “Agonist”. Moreover, the “Nuclear morphology / nuclear intensity in neurons” value in [10] is recorded as “caused significant abnormal nuclear morphology”. For the same molecule, in data set [11], the IC50 worked out at 65600 ± 6300 nM and the Action entry is given as “Partial agonist”.

In the case of `CN(C)CC1CCOC1(c1ccccc1)c1ccccc1` (stereo not drawn) [Anavex 2-73], the Ki was 860 nM in [2] and above 20000 nM in data set [6]. The “Other Targets: muscarinic M1-M4” value in [13] was “(3-5 uM),”. For the same molecule, the “Other Targets: Na + ch2” value in [14] is given as “(5 uM)”. Moreover, in [15], the “Other Targets: NMDAR2B” value was “NMDAR2B (8 uM”.

For the molecule `CN(C)CC1COC(c2ccccc2)(c2ccccc2)C1` (stereo not drawn) [Anavex 1-41], the Ki in [2] was 7 nM; in [6], above 10000 nM. Moreover, the “Other Targets: muscarinic M1-M4” value in data set [13] was “(18-114 nM), Na +”. Further, the “Other Targets: Na + ch2” value in [14] was “ch2 (>10 uM)”.

`CCC(Oc1ccc(Cl)cc1)C(=O)OC1CC2CCC(C1)N2C` (stereo not drawn) [SM-21]: the Ki is 1050 nM in data set [1] (setting [17]); 1050 nM in data set [1] (setting [18]); 1050 nM in [1] (setting [19]); 145 nM in data set [3] (setting [20]); 145 nM in data set [3] (setting [21]); 145 nM in data set [3] (setting [22]). Also, the “Sigma 1 (Type of Activity)” value in data set [2] is listed as “(antagonist)”. In [4], the Selectivity other activities result is on record as “Muscarinic”. The “Abeta oligomer-induced synapse loss eliminated / recovery” value in [16] (b801) is recorded as 20%. In data set [5], the “Max Inhibition of Abeta (%)” value was 65%. Also, the “Functional Neuronal Phenotype” value in data set [5] (Table 11C) and in [5] (Table 11D) was “Antagonist” in each case. Besides, the EC50 in data set [5] (Table 11C) was found to be 2200 nM. The IC50 in data set [5] (setting [23]) was 2.2 µM.

As to `O=C(CCCN1CCC(O)(c2ccc(Cl)cc2)CC1)c1ccc(F)cc1` [Haloperidol, haloperidol], the “Sigma 1 (Type of Activity)” value in data set [2] is recorded as “(antagonist)”. Moreover, in data set [12], the Drug-like properties entry is listed as “Yes”. The “Effect on Abeta oligomer-induced synapse loss” value in data set [16] was “completely eliminated synapse loss”. In addition, the “Max Inhibition of Abeta (%)” value in data set [5] came out at 100%. Moreover, the “Functional Neuronal Phenotype” value in data set [5] (Table 11C) and in data set [5] (Table 11D) was “Antagonist” throughout.
